Experimental data as given in patent publication US12502392B2, “DRG-MDM2-6 for use as a novel mouse double minute 2 (MDM2) inhibitor” (BAHCESEHIR UNIVERSITESI, priority 2021, dated 2025).

How the values were obtained:
MDM2 protein = MDM2 protein (Homo sapiens, UniProt Q00987); conditions: state of the art statement; cited from earlier work
[1] = system: MDA-MB231 breast cancer cell line; experiment: MTT cell viability assay (IC50); assay type: cell-based; conditions: Homo sapiens, MDA-MB-231; MDA-MB231 cells, single dose of treatment, 10^−9 to 10^−4 M, 570 nm absorbance, FIG. 1; read-out: IC50 (half-maximal inhibitory concentration)
Experimental: HCT 116 colon cancer and MDA-MB231 breast cancer cell lines are used in cell culture experiments.
Cells were treated with high-glucose DMEM medium (Biosera) supplemented with 10% FBS (Gibco) and 1× penicillin/streptomycin (Multicell). The assay was designed to contain 10,000 cells for each well of 24-well cell culture plates before being treated with inhibitors.
Compound of formula I was dissolved with DMSO as 20 mM stock. 24 hours later, the solution was diluted in DMEM with 10% FBS and final concentration of vehicle DMSO was 0.5% at maximum. Therefore, the vehicle group included 0.5% DMSO concentration in experiments. Intensive cultivation of cells causes a decrease in proliferation capacity.
The MTT cell viability assay was used to detect values of half-maximal inhibitory concentration (IC50). Different concentrations of compound of formula I ranging between 10^−9 to 10^−4 M were tested on MDA-MB231 cell lines with single dose of treatment. 570 nm absorbance values were recorded and IC50 values were calculated by dose response-inhibition curves and nonlinear regression analysis on Graphpad Prism 8 software. IC50 value of compound of formula I was determined to be […] (FIG. 1).

Chain of MDM2 protein (Q00987 whole entry, species assumed): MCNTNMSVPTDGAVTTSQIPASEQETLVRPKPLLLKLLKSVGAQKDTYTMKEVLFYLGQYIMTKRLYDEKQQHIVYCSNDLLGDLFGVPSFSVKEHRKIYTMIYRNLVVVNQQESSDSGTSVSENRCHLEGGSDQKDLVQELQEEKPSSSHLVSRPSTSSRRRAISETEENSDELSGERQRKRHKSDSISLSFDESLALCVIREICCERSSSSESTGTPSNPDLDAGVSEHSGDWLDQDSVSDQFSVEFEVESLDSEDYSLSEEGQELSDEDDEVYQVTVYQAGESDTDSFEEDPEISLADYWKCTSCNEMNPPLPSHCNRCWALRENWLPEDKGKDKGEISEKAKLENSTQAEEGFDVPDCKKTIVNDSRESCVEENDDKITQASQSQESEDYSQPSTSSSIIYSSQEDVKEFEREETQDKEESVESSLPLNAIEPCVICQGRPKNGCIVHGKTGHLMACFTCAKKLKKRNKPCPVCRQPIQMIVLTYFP

Row | IC50 [1] [µM] | Compound | binding affinity to MDM2 relative to a natural p53 peptide (MDM2 protein) [fold]
1 | – | MI-319 | 500
2 | 13 | O=C(CCCc1nc2ccccc2c(=O)[nH]1)NC(Cc1c[nH]c2ccccc12)C(=O)O (centres unmarked) [compound of formula I] | –
